This note sets out measurements from patent US7635716B2, “Substituted cyclopentanes or cyclopentanones as therapeutic agents” (Allergan, Inc., priority 2005, dated 2009).

A word on the Ki: it is a measure of affinity in units of concentration, obtained from inhibition or displacement.

Structures are written as SMILES.

The target of assay [1] is T1, hEP2 (Homo sapiens, UniProt P43116). Description: Competition binding, [3H]PGE2, HEK 293 cells stably expressing human EP2 receptors. Further details: expressed in transfected cells; host or cells: HEK 293 cells (membranes or whole cells). The conditions noted are these: Table 1, second part; read-out: hEP2 Ki. How it is done: Competition binding experiments were performed in a medium containing Hank's balanced salt solution, Hepes 20 mM, pH 7.3, membranes (˜60 μg protein) or 2×10^5 cells from HEK 293 cells stably expressing human EP2 receptors, [^3H]PGE2 (10 nM) and various concentrations of test compounds in a total volume of 300 μL. Reaction mixtures were incubated at 23° C. for 60 min, and were filtered over Whatman GF/B filters under vacuum. Filters were washed three times with 5 ml ice-cold buffer containing 50 mM Tris/HCl (pH 7.3). Non-specific binding was estimated in the presence of excess unlabeled PGE2 (10 μM). Binding data fitted to the binding model for a single class of binding sites, using nonlinear regression analysis. IC50 values thus obtained were converted to Ki using the equation of Ki=(IC50/(1+[L]/KD) where [L] represents PGE2 concentration (10 nM) and KD the dissociation constant for [^3H]PGE2 at human EP2 receptors (40 nM).
T1 sequence (P43116 whole entry): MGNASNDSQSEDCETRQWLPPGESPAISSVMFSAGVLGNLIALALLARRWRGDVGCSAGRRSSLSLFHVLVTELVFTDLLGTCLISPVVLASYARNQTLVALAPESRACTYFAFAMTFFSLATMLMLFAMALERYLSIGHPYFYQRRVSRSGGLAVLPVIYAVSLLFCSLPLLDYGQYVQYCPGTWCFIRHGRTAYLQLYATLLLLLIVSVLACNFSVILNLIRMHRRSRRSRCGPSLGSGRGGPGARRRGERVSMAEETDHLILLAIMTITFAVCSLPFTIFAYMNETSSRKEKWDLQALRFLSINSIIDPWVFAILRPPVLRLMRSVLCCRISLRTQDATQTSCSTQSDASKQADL
(§1) HEK-293 cells stably expressing the human or feline FP receptor, or EP1, EP2, or EP4 receptors were washed with TME buffer, scraped from the bottom of the flasks, and homogenized for 30 sec using a Brinkman PT 10/35 polytron. TME buffer was added to achieve a final 40 ml volume in the centrifuge tubes (the composition of TME is 100 mM TRIS base, 20 mM MgCl2, […]; 10N HCl is added to achieve a pH of 7.4).
(§2) The cell homogenate was centrifuged at 19000 r.p.m. for 20 min at 4° C. using a Beckman Ti-60 rotor. The resultant pellet was resuspended in TME buffer to give a final 1 mg/ml protein concentration, as determined by Biorad assay. Radioligand binding competition assays vs. [^3H—]17 phenyl PGF2. (5 nM) were performed in a 100 μl volume for 60 min. Binding reactions were started by adding plasma membrane fraction. The reaction was terminated by the addition of 4 ml ice-cold TRIS-HCl buffer and rapid filtration through glass fiber GF/B filters using a Brandel cell harvester. The filters were washed 3 times with ice-cold buffer and oven dried for one hour.
(§3) [^3H—] PGE2 (specific activity 180 Ci mmol) was used as the radioligand for EP receptors. [^3H] 17-phenyl PGF2α was employed for FP receptor binding studies. Binding studies employing EP1, EP2, EP4 and FP receptors were performed in duplicate in at least three separate experiments. A 200 μl assay volume was used. Incubations were for 60 min at 25° C. and were terminated by the addition of 4 ml of ice-cold 50 mM TRIS-HCl, followed by rapid filtration through Whatman GF/B filters and three additional 4 ml washes in a cell harvester (Brandel). Competition studies were performed using a final concentration of 5 nM [^3H]-PGE2, or 5 nM [^3H] 17-phenyl PGF2α and non-specific binding determined with 10^−5M of unlabeled PGE2, or 17-phenyl PGF2α, according to receptor subtype studied.

For a further assay, the target named is T2, hIP (Homo sapiens, UniProt P43119).
T2 construct: expressed in transfected cells; host or cells: HEK-293(EBNA) cells
T2 sequence (P43119 whole entry): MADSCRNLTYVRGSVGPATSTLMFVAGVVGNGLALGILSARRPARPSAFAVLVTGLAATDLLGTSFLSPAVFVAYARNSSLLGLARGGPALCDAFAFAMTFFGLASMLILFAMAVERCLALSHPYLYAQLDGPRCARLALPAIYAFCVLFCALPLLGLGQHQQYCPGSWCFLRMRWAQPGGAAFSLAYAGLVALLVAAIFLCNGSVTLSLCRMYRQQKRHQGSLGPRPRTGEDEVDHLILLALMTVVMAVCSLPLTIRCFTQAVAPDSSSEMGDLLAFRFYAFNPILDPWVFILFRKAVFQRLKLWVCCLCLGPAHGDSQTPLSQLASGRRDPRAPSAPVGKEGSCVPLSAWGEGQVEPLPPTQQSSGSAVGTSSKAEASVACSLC
Kind of assay: FLIPR calcium signal, HEK-293(EBNA) cells. Type of assay: cell-based. As to conditions: Table 1, second part; quantity not given, values match functional data (EC50) of first part; read-out: Other Receptors hIP. The method, then: (§4) HEK-293(EBNA) cells, stably expressing one type or subtype of recombinant human prostaglandin receptors (prostaglandin receptors expressed: hDP/Gqs5; hEP1; hEP2/Gqs5; hEP3A/Gqi5; hEP4/Gqs5; hFP; hIP; hTP), were cultured in 100 mm culture dishes in high-glucose DMEM medium containing 10% fetal bovine serum, 2 mM 1-glutamine, 250 μg/ml geneticin (G418) and 200 μg/ml hygromycin B as selection markers, and 100 units/ml penicillin G, 100 μg/ml streptomycin and 0.25 μg/ml amphotericin B.
(§5) Cells were seeded at a density of 5×10^4 cells per well in Biocoat® Poly-D-lysine-coated black-wall, clear-bottom 96-well plates (Becton-Dickinson) and allowed to attach overnight in an incubator at 37° C. Cells were then washed two times with HBSS-HEPES buffer (Hanks Balanced Salt Solution without bicarbonate and phenol red, 20 mM HEPES, pH 7.4) using a Denley Cellwash plate washer (Labsystems). After 45 minutes of dye-loading in the dark, using the calcium-sensitive dye Fluo-4 AM at a final concentration of 2 μM, plates were washed four times with HBSS-HEPES buffer to remove excess dye leaving 100 μl in each well. Plates were re-equilibrated to 37° C. for a few minutes.
(§6) Cells were excited with an Argon laser at 488 nm, and emission was measured through a 510-570 nm bandwidth emission filter (FLIPR™, Molecular Devices, Sunnyvale, Calif.). Drug solution was added in a 50 μl volume to each well to give the desired final concentration. The peak increase in fluorescence intensity was recorded for each well. On each plate, four wells each served as negative (HBSS-HEPES buffer) and positive controls (standard agonists: BW245C (hDP); PGE2 (hEP1; hEP2/Gqs5; hEP3A/Gqi5; hEP4/Gqs5); PGF2. (hFP); carbacyclin (hIP); U-46619 (hTP), depending on receptor). The peak fluorescence change in each drug-containing well was then expressed relative to the controls.
(§7) Compounds were tested in a high-throughput (HTS) or concentration-response (CoRe) format. In the HTS format, forty-four compounds per plate were examined in duplicates at a concentration of 10^−5 M. To generate concentration-response curves, four compounds per plate were tested in duplicates in a concentration range between 10^−5 and 10^−11 M. The duplicate values were averaged. In either, HTS or CoRe format each compound was tested on at least 3 separate plates using cells from different passages to give an n≧3.

The target in another assay is T3, hEP4/Gqs5 (Homo sapiens, UniProt P35408).
T3 construct: expressed in transfected cells; host or cells: HEK-293(EBNA) cells
T3 sequence (P35408 whole entry): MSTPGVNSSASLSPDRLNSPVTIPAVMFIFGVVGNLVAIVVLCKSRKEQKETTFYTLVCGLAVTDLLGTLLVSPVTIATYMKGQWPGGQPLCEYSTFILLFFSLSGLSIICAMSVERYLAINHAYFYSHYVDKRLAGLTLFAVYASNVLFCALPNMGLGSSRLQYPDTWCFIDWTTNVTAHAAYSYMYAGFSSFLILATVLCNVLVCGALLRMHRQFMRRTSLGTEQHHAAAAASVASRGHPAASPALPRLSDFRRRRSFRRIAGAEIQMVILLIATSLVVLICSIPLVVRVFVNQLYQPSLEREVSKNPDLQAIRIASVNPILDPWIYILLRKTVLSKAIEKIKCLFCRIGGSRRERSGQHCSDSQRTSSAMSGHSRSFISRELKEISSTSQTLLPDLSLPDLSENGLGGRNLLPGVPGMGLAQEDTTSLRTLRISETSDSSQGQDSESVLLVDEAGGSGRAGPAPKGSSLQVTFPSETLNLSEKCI
Kind of assay: FLIPR calcium signal, HEK-293(EBNA) cells. Type of assay: cell-based. The conditions noted are these: Table 1, second part; read-out: hEP4 flipr EC50. The method, then:
as §4, §5, §6, §7

In a further assay the target is T4, hEP2/Gqs5 (Homo sapiens, UniProt P43116).
T4 construct: expressed in transfected cells; host or cells: HEK-293(EBNA) cells
T4 sequence (P43116 whole entry): as the sequence (P43116 whole entry) above
Description: FLIPR calcium signal, HEK-293(EBNA) cells. As to conditions: Table 1, second part; read-out: hEP2 flipr EC50. Type of assay: cell-based. How it is done: as §4, §5, §6, §7

A further assay concerns the target T5, hEP4 (Homo sapiens, UniProt P35408).
T5 construct: expressed in transfected cells; host or cells: HEK-293 cells (plasma membrane fraction)
Kind of assay: Radioligand binding, [3H]PGE2, HEK-293 cells stably expressing EP4 receptors. The conditions noted are these: Table 1, second part; read-out: hEP4 Ki. The method, then:
as §1, §2
as §3, with “Binding studies employing EP1, EP2, EP4 and FP receptors were performed in duplicate in at least three separate experiments.” left out

The target of assay [2] is T1, hEP2. Description: hEP2 cAMP functional assay. Type of assay: cell-based. As to conditions: Table 1, second part.

T5 sequence (P35408 whole entry): as the sequence (P35408 whole entry) above

On to `O=Cc1cccc(OC[C@@H]2[C@@H](C/C=C\CCCC(=O)O)[C@H](Cl)C[C@H]2O)c1` [Example 48, (Z)-7-[(1R,2S,3R,5R)-5-Chloro-2-(3-formyl-phenoxymethyl)-3-hydroxy-cyclopentyl]-hept-5-enoic acid], for which the Ki on hEP2 [1] turned out to be 291 nM; on hEP4, 14700 nM. For the same molecule, the EC50 was 2690 nM at hIP, above 10000 nM at hEP4/Gqs5, 192 nM at hEP2/Gqs5 and 41 nM at hEP2 [2].
